# Legend:
# mTOR = molecular target: T1, mTOR (Homo sapiens, UniProt P42345+P62942); assay: mTOR TR-FRET kinase assay (phosphorylation of GFP-4E-BP1); type: biochemical; conditions: 10 μM ATP, 0.4 μM GFP-4E-BP1, read-out: IC50 mTOR inhibition
# T1 construct: purchased Invitrogen (mTOR); SinoBiological (FKBP12) PV4753 (mTOR); 10268-H08E (FKBP12)
# Text: Now we use a Terbium labeled anti-phosphorylated 4E--BP1 antibody to detect phosphorylation of the GFP-labeled substrate by mTOR. This TR-FRET based assay can be used to screen inhibitors of mTOR in vitro.
# Materials: Assay buffer components: 1M HEPES pH7.5, GIBCO, Cat#15630: 1M MgCl2, Sigma, Cat# M1028: 0.5M EDTA, GIBCO, Cat# 15575: DTT, Sigma Cat# 43819: EGTA, Sigma Cat# E3889; Triton X100, Sigma, Cat# T8787: USA CALBIOCHEM Cat# 126575.
# Enzyme, substrate and detection reagents: mTOR: Invitrogen, Cat# PV4753: GFP-4E-BPI: Invitrogen, Cat# PV4759: FKBP12: SinoBiological, Cat# 10268-H08E: ATP: Sigma Cat# A26209: Tb-anti-p4E-BP1: Invitrogen, Cat# PV4755: TR-FRET Dilution buffer Invitrogen, Cat# PV3574.
# Plate: Compounds preparation plate: 384-well, Corning cat# 3657: Assay plate: black low volume 384 well microtiter plate (Greiner Bio-One, Cat# 784076).
# Procedure: Compounds dosage gradient solution preparation:
# Compounds were 3-fold serial diluted in 100% DMSO in a microtiter plate (Corning 3674) at 11 different concentrations in the range of 100 μM to 1.7 nM (100 μM, 33 μM, 11 μM, 3.7 μM, 1.2 μM, 411 nM, 137 nM, 46 nM, 15 nM, 5 nM, 1.7 nM). Then the diluted compounds in 100% DMSO was 10-fold diluted with ddH2O, so the compounds were in 10% DMSO.
# 0.5 μl diluted compounds in 10% DMSO was pipetted into a black low volume 384 well microtiter plate (Greiner Bio-One, Frickenhausen, Germany, cat# 784076): 2 μl of a solution of mTOR in aqueous assay buffer |50 mM HEPES/NaOH pH 7.5. mM MgCl12, 1.0 mM dithiothreitol, 1 mM EGTA, 0.01% (v/v) Triton-X100 (Sigma), 0.01% (w/v| bovine serum albumine (BSA)| (mTOR, 0.3125 ng/μl=>final cone, in the 5 μl assay volume is 0.125 ng/μl) were added to the assay plate and the compound-enzyme mixture was incubated for 15 min at 22° C. to allow pre-binding of the test compounds to the enzyme before the start of the kinase reaction:
# The kinase reaction was started by the addition of 2.5 μl of a solution of ATP (ATP, […]=>final conc., in the 5 μl assay volume is 10 μM) and substrate (0.8 μM=>final conc. in the 5 μl assay volume is 0.4 μM) in assay buffer and the resulting mixture was incubated for 18 min at 22° C.
# The reaction was stopped by the addition of 5 ul of 30 mM EDTA (EDTA, 30 mM=> final cone, in the 10 ∥l assay volume is 15 mM) and 4 nM Tb-chelate labeled anti-4E-BP1 |pT46| phosphospecific antibody |Invitrogen Cat# PV4755| (Tb-labeled antibody, 4 nM=>final conc. in the 10 μl assay volume is 2 nM) in TR-FRET dilution buffer, the resulting mixture was incubated 1 hour at 22° C. to allow the formation of complex of the phosphorylated substrate and the Tb-chelate labeled antibody.
# The amount of phosphorylated substrate was evaluated by measurement of the resonance energy transfer from the Tb-chelate to the GFP. Therefore, the fluorescence emission at 495 nmn and 520 nm after excitation at 340 nm was measured on envision 2104 multilabel reader (Perkin-Elmer). The ratio of the emission at 520 nm and at 495 nm was taken as the measure for the amount of phosphorylated substrate. The data were normalised (enzyme reaction without inhibitor=0% inhibition, all other assay components but no enzyme=100% inhibition) and IC50 values were calculated by a 4 parameter fit (equation (1)) using IDBS XLfit software (ID Business Solutions Ltd., UK)
# Y=Bottom+(TOP−Bottom)/(1+10̂((LogIC50−X)*hillslope)) equation (1)
# In this equation, Y was the normalized % inhibition value. X was the log value of the test compound concentration. IC50 was the concentration of compound where half of maximal inhibition was achieved.
# [1] = system: HCT-116 human colon cancer; conditions: 9 mg/kg/day p.o., after 22 days treatment, compared to vehicle control
# Procedure: Animals: Balb/c nude mice, female, 6-8 weeks, weighing approximately 18-20 g. A total of 70 will be needed for the study, which will be purchased from Vital River Laboratory Animal Technology Co. Ltd.
# Tumor Inoculation: Each mouse will be inoculated subculaneously at the right flank with HCT-116 tumor cells (3×106) in 0.1 ml of PBS for tumor development. The treatments will be started when the tumor size reaches approximately ˜150 mm3.
# Assignment to Groups: Before commencement of treatment, all animals will be weighed and the tumor volumes will be measured. […]
# Endpoints: The major endpoint is to see if the tumor growth can be delayed or mice can be cured. Tumor sizes will be measured twice weekly in two dimensions using a caliper, and the volume will be expressed in mm3 using the formula: V=0.5 a×b2 where a and b are the long and short diameters of the tumor, respectively. […] T-C is calculated with T as the median time (in days) required for the treatment group tumors to reach a predetermined size (e.g., 500 mm3), and C is the median time (in days) for the control group tumors to reach the same size. […]
# Statistical Analysis: for comparison between two groups, an independent sample t-test will be used. […] The potential synergistic effect between treatments will be analyzed by LSD or Dunnett's T3. All data will be analyzed using SPSS 17.0 software, p<0.05 is considered to be statistically significant.
# T1 sequence (P42345 1360-2549 limits assumed): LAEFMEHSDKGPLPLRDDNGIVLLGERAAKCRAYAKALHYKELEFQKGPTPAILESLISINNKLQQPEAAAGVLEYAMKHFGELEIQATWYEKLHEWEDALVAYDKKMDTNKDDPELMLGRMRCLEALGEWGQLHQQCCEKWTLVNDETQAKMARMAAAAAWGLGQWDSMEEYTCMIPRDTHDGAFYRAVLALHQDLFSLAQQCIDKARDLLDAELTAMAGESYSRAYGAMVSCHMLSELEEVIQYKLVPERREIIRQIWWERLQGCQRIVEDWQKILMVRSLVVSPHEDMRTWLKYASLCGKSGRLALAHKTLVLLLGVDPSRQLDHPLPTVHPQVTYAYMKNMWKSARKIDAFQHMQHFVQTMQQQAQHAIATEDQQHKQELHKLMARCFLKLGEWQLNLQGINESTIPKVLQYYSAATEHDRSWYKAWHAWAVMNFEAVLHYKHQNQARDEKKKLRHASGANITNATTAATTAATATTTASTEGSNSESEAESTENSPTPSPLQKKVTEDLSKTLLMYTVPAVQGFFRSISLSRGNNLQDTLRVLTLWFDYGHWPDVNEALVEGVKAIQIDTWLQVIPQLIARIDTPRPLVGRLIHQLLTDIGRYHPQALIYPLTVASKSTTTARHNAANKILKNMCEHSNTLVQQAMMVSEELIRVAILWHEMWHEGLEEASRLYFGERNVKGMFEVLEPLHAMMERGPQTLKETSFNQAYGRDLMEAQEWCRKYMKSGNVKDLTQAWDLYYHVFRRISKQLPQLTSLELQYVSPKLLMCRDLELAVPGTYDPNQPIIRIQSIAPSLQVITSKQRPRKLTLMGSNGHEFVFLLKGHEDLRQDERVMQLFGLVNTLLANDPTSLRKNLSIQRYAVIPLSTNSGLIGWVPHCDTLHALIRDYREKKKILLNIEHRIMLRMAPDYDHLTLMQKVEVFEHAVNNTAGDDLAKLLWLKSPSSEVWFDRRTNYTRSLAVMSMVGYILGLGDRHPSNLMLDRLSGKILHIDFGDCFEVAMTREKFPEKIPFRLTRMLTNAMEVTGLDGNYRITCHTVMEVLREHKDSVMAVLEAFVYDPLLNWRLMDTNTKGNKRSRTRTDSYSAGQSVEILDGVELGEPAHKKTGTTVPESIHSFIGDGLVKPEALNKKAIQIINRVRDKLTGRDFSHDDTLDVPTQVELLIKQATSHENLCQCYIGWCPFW
# T1 sequence (P62942 whole entry): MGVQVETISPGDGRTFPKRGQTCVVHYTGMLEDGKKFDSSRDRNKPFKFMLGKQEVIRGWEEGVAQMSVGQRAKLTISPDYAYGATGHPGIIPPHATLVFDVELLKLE
SMILES,IC50 (mTOR),tumor growth inhibition [1]
CO[C@H]1C[C@@H]2CC[C@@H](C)[C@@](O)(O2)C(=O)C(=O)N2CCCC[C@H]2C(=O)O[C@H]([C@H](C)C[C@@H]2CC[C@H](n3cc(-c4ccc(C(=O)O)cc4)nn3)[C@H](OC)C2)CC(=O)[C@H](C)/C=C(\C)[C@@H](O)[C@@H](OC)C(=O)[C@H](C)C[C@H](C)/C=C/C=C/C=C/1C [Compound B11],446 nM,
CO[C@H]1C[C@@H]2CC[C@@H](C)[C@@](O)(O2)C(=O)C(=O)N2CCCC[C@H]2C(=O)O[C@H]([C@H](C)C[C@@H]2CC[C@@H](OCc3c[nH]nn3)[C@H](OC)C2)CC(=O)[C@H](C)/C=C(\C)[C@@H](O)[C@@H](OC)C(=O)[C@H](C)C[C@H](C)/C=C/C=C/C=C/1C [Compound A6],9140 nM,
CO[C@H]1C[C@@H]2CC[C@@H](C)[C@@](O)(O2)C(=O)C(=O)N2CCCC[C@H]2C(=O)O[C@H]([C@H](C)C[C@@H]2CC[C@@H](OCc3cn(-c4ccc(N5CCN(C)CC5)cc4)nn3)[C@H](OC)C2)CC(=O)[C@H](C)/C=C(\C)[C@@H](O)[C@@H](OC)C(=O)[C@H](C)C[C@H](C)/C=C/C=C/C=C/1C [Compound A13],> 10000 nM,
COC1CC2CCC(C)C(O)(O2)C(=O)C(=O)N2CCCCC2C(=O)OC(C(C)CC2CCC(OCc3cn(Cc4ccc(F)cc4)nn3)C(OC)C2)CC(=O)C(C)C=C(C)C(O)C(OC)C(=O)C(C)CC(C)C=CC=CC=C1C (centres unmarked) [Compound A14],> 10000 nM,
CO[C@H]1C[C@@H]2CC[C@@H](C)[C@@](O)(O2)C(=O)C(=O)N2CCCC[C@H]2C(=O)O[C@H]([C@H](C)C[C@@H]2CC[C@@H](OCc3cn(-c4ccc(C(=O)O)cc4)nn3)[C@H](OC)C2)CC(=O)[C@H](C)/C=C(\C)[C@@H](O)[C@@H](OC)C(=O)[C@H](C)C[C@H](C)/C=C/C=C/C=C/1C [Compound A4],6600 nM,
CO[C@H]1C[C@@H]2CC[C@@H](C)[C@@](O)(O2)C(=O)C(=O)N2CCCC[C@H]2C(=O)O[C@H]([C@H](C)C[C@@H]2CC[C@@H](OCc3cn(C45CC6CC(CC(C6)C4)C5)nn3)[C@H](OC)C2)CC(=O)[C@H](C)/C=C(\C)[C@@H](O)[C@@H](OC)C(=O)[C@H](C)C[C@H](C)/C=C/C=C/C=C/1C [Compound A3],> 10000 nM,
CO[C@H]1C[C@@H]2CC[C@@H](C)[C@@](O)(O2)C(=O)C(=O)N2CCCC[C@H]2C(=O)O[C@H]([C@H](C)C[C@@H]2CC[C@@H](OCc3cn(CC(=O)O)nn3)[C@H](OC)C2)CC(=O)[C@H](C)/C=C(\C)[C@@H](O)[C@@H](OC)C(=O)[C@H](C)C[C@H](C)/C=C/C=C/C=C/1C [Compound A12],> 10000 nM,
CO[C@H]1C[C@@H]2CC[C@@H](C)[C@@](O)(O2)C(=O)C(=O)N2CCCC[C@H]2C(=O)O[C@H]([C@H](C)C[C@@H]2CC[C@H](n3cc(CO)nn3)[C@H](OC)C2)CC(=O)[C@H](C)/C=C(\C)[C@@H](O)[C@@H](OC)C(=O)[C@H](C)C[C@H](C)/C=C/C=C/C=C/1C [Compound B2],18.4 nM,
CO[C@H]1C[C@@H]2CC[C@@H](C)[C@@](O)(O2)C(=O)C(=O)N2CCCC[C@H]2C(=O)O[C@H]([C@H](C)C[C@@H]2CC[C@H](n3cc(-c4cccnc4)nn3)[C@H](OC)C2)CC(=O)[C@H](C)/C=C(\C)[C@@H](O)[C@@H](OC)C(=O)[C@H](C)C[C@H](C)/C=C/C=C/C=C/1C [Compound B9],27.2 nM,
CO[C@H]1C[C@@H]2CC[C@@H](C)[C@@](O)(O2)C(=O)C(=O)N2CCCC[C@H]2C(=O)O[C@H]([C@H](C)C[C@@H]2CC[C@H](n3cc(-c4ccc(S(N)(=O)=O)cc4)nn3)[C@H](OC)C2)CC(=O)[C@H](C)/C=C(\C)[C@@H](O)[C@@H](OC)C(=O)[C@H](C)C[C@H](C)/C=C/C=C/C=C/1C [Compound B13],29 nM,
CO[C@H]1C[C@@H]2CC[C@@H](C)[C@@](O)(O2)C(=O)C(=O)N2CCCC[C@H]2C(=O)O[C@H]([C@H](C)C[C@@H]2CC[C@H](n3cc(COc4ccc(S(N)(=O)=O)cc4)nn3)[C@H](OC)C2)CC(=O)[C@H](C)/C=C(\C)[C@@H](O)[C@@H](OC)C(=O)[C@H](C)C[C@H](C)/C=C/C=C/C=C/1C [Compound B12],35.2 nM,
COC1CC2CCC(C)C(O)(O2)C(=O)C(=O)N2CCCCC2C(=O)OC(C(C)CC2CCC(OCc3cn(CCO)nn3)C(OC)C2)CC(=O)C(C)C=C(C)C(O)C(OC)C(=O)C(C)CC(C)C=CC=CC=C1C (centres unmarked) [Compound A9],> 10000 nM,
"CO[C@H]1C[C@@H]2CC[C@@H](C)[C@@](O)(O2)C(=O)C(=O)N2CCCC[C@H]2C(=O)O[C@H]([C@H](C)C[C@@H]2CC[C@@H](OCCO)[C@H](OC)C2)CC(=O)[C@H](C)/C=C(\C)[C@@H](O)[C@@H](OC)C(=O)[C@H](C)C[C@H](C)/C=C/C=C/C=C/1C [Compound A15, reference compound]",6.43 nM,63%
